For 56 compounds, IC50 results are on record in patent US8461329B2, “Isoquinoline derivative” (Taisho Pharmaceutical Co., Ltd., priority 2008, dated 2013).

The first assay concerns the target T1, CRTH2 (KB8 cells) (Homo sapiens, UniProt Q9Y5Y4).
T1 construct: host or cells: KB8 cells (human CRTH2 expression cell)
T1 sequence (Q9Y5Y4 1-395): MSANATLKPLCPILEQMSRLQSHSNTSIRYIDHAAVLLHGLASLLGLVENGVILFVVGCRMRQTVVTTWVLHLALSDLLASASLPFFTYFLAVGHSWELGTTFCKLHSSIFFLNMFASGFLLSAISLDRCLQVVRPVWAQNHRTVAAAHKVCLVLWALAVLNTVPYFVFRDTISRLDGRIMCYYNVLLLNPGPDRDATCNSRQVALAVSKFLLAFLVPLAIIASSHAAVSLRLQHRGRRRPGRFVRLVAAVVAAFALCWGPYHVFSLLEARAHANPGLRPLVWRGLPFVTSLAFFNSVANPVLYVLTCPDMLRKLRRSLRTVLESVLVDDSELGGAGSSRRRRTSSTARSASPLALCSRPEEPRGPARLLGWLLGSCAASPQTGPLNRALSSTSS
As to the kind of experiment: CRTH2 antagonist test (PGD2-induced intracellular calcium ion concentration increase in KB8 cells). The assay is classed as cell-based. The note with it: PGD2 100 nM, Fluo-4 calcium fluorescence, read-out: CRTH2 antagonist activity IC50 value. On the procedure:
The antagonist activity of the compound of the present invention was considered by using the intracellular calcium ion concentration increase reaction induced when the prostaglandin D2 was added to KB8 cells.
Fluo-4-AM (4-(6-acetoxymethoxy-2,7-difluoro-3-oxo-9-xanthenyl)-4′-methyl-2,2′-(ethylenedioxy)dianilide-N,N,N′,N′-tetraacetic acid tetrakis(acetoxymethyl) ester (SIGMA, final concentration: 1 μM) was added to KB8 cells, and the cells were incubated at 37° C. for 30 min, washed with phosphate buffer (Invitrogen), and then suspended in Hank's balanced salt solution (Invitrogen)) containing a reaction buffer solution (10 mM HEPES (Invitrogen), and 1 mM calcium chloride (SIGMA). The suspension was dispensed in a 96 well plate (Nunc) so that 2×10^5 cells/well were placed, and the compound of the present invention and PGD2 (final concentration: 100 nM) were added. The fluorescence intensity thereof was measured over time by using FDSS6000 (Hamamatsu Photonics), and thus the maximum fluorescence intensity value “d” was obtained. The same procedure was carried out in the absence of the compound, and the maximum fluorescence intensity value “e” was obtained; and the same procedure was carried out in the absence of the compound and […], and the maximum fluorescence intensity value “f” was obtained.
The calcium ion concentration increase inhibition rate of a compound was calculated by the following calculation formula: Inhibitory rate(%)=[1−(d−f)/(e−f)]×100
That is to say, by using calcium ion concentration increase inhibitory rates of compounds to be tested having various concentrations, the IC50 value was calculated according to a dose-dependent inhibition curve analyzed by using XLfit (IDBS) as a data analysis software, and the value was defined as an indicator of the antagonist activity. In Tables, A denotes an inhibitory activity showing the IC50 value of less than 50 nM; B denotes an inhibitory activity showing the IC50 value of 50 nM or greater and less than 500 nM; C denotes an inhibitory activity showing the IC50 value of 500 nM or greater and less than 1000 nM; and D denotes an inhibitory activity showing the IC50 value of 1000 nM or greater.
For orientation: Calcium flux is commonly read through the fluorescence of an indicator in the cells.
On to `O=C(O)Cc1cnc(Cc2ccc(C(=O)NCCc3ccc(C(F)(F)F)cc3)cc2)c2ccccc12` [Example 201], for which the IC50 came to 20 nM.

Staying with this assay, now noted: PGD2 final concentration 100 nM, Fluo-4-AM fluorescence, read-out: antagonist activity (IC50 value, inhibition of calcium ion concentration increase).
As to `O=C(O)Cc1cnc(Cc2ccc(C(=O)NCCc3ccccc3)cc2)c2ccccc12` [Example 161, (1-{4-[(2-phenylethyl)carbamoyl]benzyl}isoquinolin-4-yl)acetic acid], the IC50 lay in the range of 50 to 500 nM.
For the compound `O=C(O)Cc1cnc(Cc2ccc(C(=O)NCCc3ccccc3Cl)cc2)c2ccccc12` [Example 162], the IC50 was less than 50 nM.
On the same count and under the same terms, next, `O=C(O)Cc1cnc(Cc2ccc(C(=O)NCCCc3ccc(Cl)cc3)cc2)c2ccccc12` [Example 164]: less than 50 nM; `Cc1ccc(CCNC(=O)c2ccc(Cc3ncc(CC(=O)O)c4ccccc34)cc2)cc1` [Example 165]: less than 50 nM.
As to `Cc1cccc(CCNC(=O)c2ccc(Cc3ncc(CC(=O)O)c4ccccc34)cc2)c1` [Example 166], the IC50 is less than 50 nM.
As to `Cc1ccccc1CCNC(=O)c1ccc(Cc2ncc(CC(=O)O)c3ccccc23)cc1` [Example 167], the IC50 was less than 50 nM.
Still for that read-out and setting: the same measure for `Cc1ccc(CCNC(=O)c2ccc(Cc3ncc(CC(=O)O)c4ccccc34)cc2)cc1C` [Example 168]: 50 to 500 nM.
With `Cc1ccc(C)c(CCNC(=O)c2ccc(Cc3ncc(CC(=O)O)c4ccccc34)cc2)c1` [Example 169], the IC50 is 50 to 500 nM.
Regarding `COc1ccc(CCNC(=O)c2ccc(Cc3ncc(CC(=O)O)c4ccccc34)cc2)cc1Cl` [Example 170], the IC50 lay within 50 to 500 nM.
`COc1ccc(CCNC(=O)c2ccc(Cc3ncc(CC(=O)O)c4ccccc34)cc2)cc1C` [Example 171]: the IC50 lay in the range of 50 to 500 nM.
Still for that read-out and setting: the same measure for `O=C(O)Cc1cnc(Cc2ccc(C(=O)NCCc3cccc(Br)c3)cc2)c2ccccc12` [Example 172]: 50 to 500 nM; for `O=C(O)Cc1cnc(Cc2ccc(C(=O)NCCc3ccc(C(=O)O)cc3)cc2)c2ccccc12` [Example 173]: no less than 1000 nM; for `O=C(O)Cc1cnc(Cc2ccc(C(=O)NCCc3ccc([N+](=O)[O-])cc3)cc2)c2ccccc12` [Example 174]: 50 to 500 nM.
The same measure, in the same setting: next, `O=C(O)Cc1cnc(Cc2ccc(C(=O)NCCc3ccccn3)cc2)c2ccccc12` [Example 175]: no less than 1000 nM; `O=C(O)Cc1cnc(Cc2ccc(C(=O)NCCc3cccnc3)cc2)c2ccccc12` [Example 176]: no less than 1000 nM.
The same measure, in the same setting: next, `O=C(O)Cc1cnc(Cc2ccc(C(=O)NCCc3ccncc3)cc2)c2ccccc12` [Example 177]: no less than 1000 nM; `O=C(O)Cc1cnc(Cc2ccc(C(=O)NCCOc3ccc(Cl)cc3)cc2)c2ccccc12` [Example 178]: 50 to 500 nM.
Regarding `O=C(O)Cc1cnc(Cc2ccc(C(=O)NCCc3c[nH]c4ccccc34)cc2)c2ccccc12` [Example 179], the IC50 is less than 50 nM.
Same read-out and setting: next, `O=C(O)Cc1cnc(Cc2ccc(C(=O)NCCc3ccc(Cl)cc3Cl)cc2)c2ccccc12` [Example 180]: less than 50 nM; `O=C(O)Cc1cnc(Cc2ccc(C(=O)NCCc3ccccc3F)cc2)c2ccccc12` [Example 181]: 50 to 500 nM.
Still for that read-out and setting: next, `O=C(O)Cc1cnc(Cc2ccc(C(=O)NCCc3cccc(F)c3)cc2)c2ccccc12` [Example 182]: 50 to 500 nM; `O=C(O)Cc1cnc(Cc2ccc(C(=O)NCCc3ccccc3Br)cc2)c2ccccc12` [Example 183]: less than 50 nM.
Turning to `COc1ccccc1CCNC(=O)c1ccc(Cc2ncc(CC(=O)O)c3ccccc23)cc1` [Example 184], the IC50 lay within 50 to 500 nM.
As for `O=C(O)Cc1cnc(Cc2ccc(C(=O)NCCN3CCOCC3)cc2)c2ccccc12` [Example 185], the IC50 is no less than 1000 nM.
For the compound `CCCCNC(=O)c1ccc(Cc2ncc(CC(=O)O)c3ccccc23)cc1` [Example 186], the IC50 lay in the range of 500 to 1000 nM.
The same measure, in the same setting: the same measure for `O=C(O)Cc1cnc(Cc2ccc(C(=O)NCCC3CCCCC3)cc2)c2ccccc12` [Example 187]: less than 50 nM; for `O=C(O)Cc1cnc(Cc2ccc(C(=O)NCCC3=CCCCC3)cc2)c2ccccc12` [Example 188]: 50 to 500 nM; for `COc1ccc(CCNC(=O)c2ccc(Cc3ncc(CC(=O)O)c4ccccc34)cc2)cc1OC` [Example 189]: no less than 1000 nM.
Same read-out and setting: the same measure for `O=C(O)Cc1cnc(Cc2ccc(C(=O)NCCc3c(F)cccc3Cl)cc2)c2ccccc12` [Example 190]: 50 to 500 nM; for `O=C(O)Cc1cnc(Cc2ccc(C(=O)NCCc3c(Cl)cccc3Cl)cc2)c2ccccc12` [Example 191]: 50 to 500 nM.
On the same count and under the same terms, next, `Cc1c(C)c(C)c(CCNC(=O)c2ccc(Cc3ncc(CC(=O)O)c4ccccc34)cc2)c(C)c1C` [Example 192]: less than 50 nM; `CC(C)(C)c1ccc(CCNC(=O)c2ccc(Cc3ncc(CC(=O)O)c4ccccc34)cc2)cc1` [Example 193]: less than 50 nM.
Turning to `O=C(O)Cc1cnc(Cc2ccc(C(=O)NCCc3ccc(-c4ccccc4)cc3)cc2)c2ccccc12` [Example 194], the IC50 was less than 50 nM.
Still for that read-out and setting: the same measure for `O=C(O)Cc1cnc(Cc2ccc(C(=O)NCCc3ccc(Oc4ccccc4)cc3)cc2)c2ccccc12` [Example 195]: less than 50 nM; for `O=C(O)Cc1cnc(Cc2ccc(C(=O)NCCc3ccc(O)cc3)cc2)c2ccccc12` [Example 196]: 500 to 1000 nM.
On the same count and under the same terms, the same measure for `COc1cccc(CCNC(=O)c2ccc(Cc3ncc(CC(=O)O)c4ccccc34)cc2)c1` [Example 197]: 50 to 500 nM.
The same measure, in the same setting: next, `O=C(O)Cc1cnc(Cc2ccc(C(=O)NCCc3ccc(Br)cc3)cc2)c2ccccc12` [Example 199]: less than 50 nM; `O=C(O)Cc1cnc(Cc2ccc(C(=O)NCCc3ccc(F)cc3)cc2)c2ccccc12` [Example 200]: 50 to 500 nM; `O=C(O)Cc1cnc(Cc2ccc(C(=O)NCCc3ccc(C(F)(F)F)cc3)cc2)c2ccccc12` [Example 201]: less than 50 nM.
Regarding `O=C(O)Cc1cnc(Cc2ccc(C(=O)NCCc3ccc4ccccc4n3)cc2)c2ccccc12` [Example 202], the IC50 was 50 to 500 nM.
The same measure, in the same setting: the same measure for `O=C(O)Cc1cnc(Cc2ccc(C(=O)NCCc3ccc(OC(F)(F)F)cc3)cc2)c2ccccc12` [Example 203]: less than 50 nM; for `Cc1ccc(CCNC(=O)c2ccc(Cc3ncc(CC(=O)O)c4ccccc34)cc2)cc1F` [Example 204]: less than 50 nM.
Consider `O=C(O)Cc1cnc(Cc2ccc(C(=O)NCCc3ccc4ccccc4c3)cc2)c2ccccc12` [Example 205], for which the IC50 is less than 50 nM.
The same measure, in the same setting: next, `CN(C)c1ccc(CCNC(=O)c2ccc(Cc3ncc(CC(=O)O)c4ccccc34)cc2)cc1` [Example 206]: 50 to 500 nM; `CS(=O)(=O)c1ccc(CCNC(=O)c2ccc(Cc3ncc(CC(=O)O)c4ccccc34)cc2)cc1` [Example 207]: no less than 1000 nM.
Same read-out and setting: the same measure for `Cc1ccc(CCNC(=O)c2ccc(Cc3ncc(CC(=O)O)c4ccccc34)cc2)c(C)c1` [Example 208]: less than 50 nM.
Still for that read-out and setting: next, `COc1cc(CCNC(=O)c2ccc(Cc3ncc(CC(=O)O)c4ccccc34)cc2)cc(OC)c1O` [Example 209]: no less than 1000 nM.
On to `O=C(O)Cc1cnc(Cc2ccc(C(=O)NCCc3ccc(F)c(Cl)c3)cc2)c2ccccc12` [Example 210], for which the IC50 was less than 50 nM.
The same measure, in the same setting: next, `COc1cc(CCNC(=O)c2ccc(Cc3ncc(CC(=O)O)c4ccccc34)cc2)ccc1C` [Example 211]: 50 to 500 nM.
On to `O=C(O)Cc1cnc(Cc2ccc(C(=O)NCCc3cc(F)cc(F)c3)cc2)c2ccccc12` [Example 212], for which the IC50 is 50 to 500 nM.
On to `Cc1ccc(F)cc1CCNC(=O)c1ccc(Cc2ncc(CC(=O)O)c3ccccc23)cc1` [Example 213], for which the IC50 is 50 to 500 nM.
The same measure, in the same setting: the same measure for `O=C(O)Cc1cnc(Cc2ccc(C(=O)NCCC3CCOCC3)cc2)c2ccccc12` [Example 214]: no less than 1000 nM; for `O=C(O)Cc1cnc(Cc2ccc(C(=O)NCCc3cc(F)cc(C(F)(F)F)c3)cc2)c2ccccc12` [Example 215]: 50 to 500 nM; for `O=C(O)Cc1cnc(Cc2ccc(C(=O)NCCc3cc(F)cc(Cl)c3)cc2)c2ccccc12` [Example 216]: 50 to 500 nM.
Still for that read-out and setting: next, `Cc1cccc(C)c1CCNC(=O)c1ccc(Cc2ncc(CC(=O)O)c3ccccc23)cc1` [Example 217]: less than 50 nM.
The same measure, in the same setting: next, `O=C(O)Cc1cnc(Cc2ccc(C(=O)NCCc3ccc4c(c3)CCCC4)cc2)c2ccccc12` [Example 218]: less than 50 nM.
